One data set in a line: in vivo. The settings on record: dog, iv. The method, then: Single IV doses were given to each of a group of four beagle dogs: 5 mg of propranolol free base was dissolved in 3 ml sterile sodium chloride solution USP. The solution was infused over a 20 second period through an in-line millipore filter. Blood samples (1 ml) were withdrawn at desired intervals postinfusion. The IV results are shown as a " ." Similarly, blood plasma samples were withdrawn and analyzed for oral administration of 80 mg propranolol in immediate release form (" ") and the polymer coated dosage delivery form of section A. above ("+").
DDT is indicated by the release of citric acid from the drug-containing core which causes a spike in the pH time profile. The pH will remain depressed for the duration of the dissolution of the citric acid.
Blood samples (1 ml) were withdrawn at 5, 10, 15, 20, 30, 40, 50, 60, 70, 80, 90, 105, 120, 150, 180, 240, 300, 360 and 420 minutes after dosing for the immediate release dosage form. For the polymer coated tablets, the sampling schedule began at the time of coating dissolution (CDT). After dissolution, blood samples (1 ml) were withdrawn at 5, 15, 30, 45, 60, 90, 120, 190, 240, 300, 360 and 420 minutes.

For data set [1] the following is noted: in man; cited from earlier work.
The conditions of data set [2]: saturated solution; cited from earlier work.
For data set [3] the following is noted: cited from earlier work.
The mark [4] stands for this setting: list of drugs with nonlinear kinetics.

Structures can show the parent of a compound that is named as a salt. Where two headings read alike, the source gives them in different places.

As for `CC(C)NCC(O)COc1cccc2ccccc12` (stereo not shown) [propranolol], the half-life in the data set “in vivo” (half-life) is 1.97 h; in the data set “in vivo” (terminal phase half-life), roughly 2 h. In data set [1], the biological half-life result was “two to six”. Turning to `[Cl-].[Na+]` [sodium chloride], in data set [2], the osmotic pressure is given as 5250 psi. Regarding `C#C[C@]1(O)CC[C@H]2[C@@H]3CCc4cc(O)ccc4[C@H]3CC[C@@]21C` [Ethinylestradiol], the F in data set [3] (setting [4]) was 0.4. As to `C#C[C@]1(O)CC[C@H]2[C@@H]3CCC4=CC(=O)CC[C@@H]4[C@H]3CC[C@@]21C` [Norethindrone], in data set [3] (setting [4]), the F is recorded as 0.65. Regarding `C[C@H]1C[C@@H]2[C@H]([C@@H](O)C[C@@]3(C)[C@H]2CC[C@]3(O)C(=O)CO)[C@@]2(C)C=CC(=O)C=C12` [Methylprednisolone], the F in data set [3] (setting [4]) was 0.85. Regarding `C[C@]12C=CC(=O)C=C1CC[C@@H]1[C@@H]2C(=O)C[C@@]2(C)[C@H]1CC[C@]2(O)C(=O)CO` [Prednisone], in data set [3] (in vivo), the F is 0.85. With `CN/C(=N/CCSCc1nc[nH]c1C)NC#N` [Cimetidine], the F in data set [3] (setting [4]) was 0.7. For `CC(C)C[C@H]1C(=O)N2CCC[C@H]2[C@]2(O)O[C@](NC(=O)[C@@H]3C=C4c5cccc6[nH]c(Br)c(c56)C[C@H]4N(C)C3)(C(C)C)C(=O)N12` [Bromocriptine Mesylate], the F in data set [3] (setting [4]) is recorded as 0.6.

Source of the values: patent publication US5229131A, “Pulsatile drug delivery system” (priority 1991, dated 1993).
